This note sets out measurements from article PMC8296708, “The pan HDAC inhibitor Givinostat improves muscle function and histological parameters in two Duchenne muscular dystrophy murine models expressing different haplotypes of the LTBP4 gene” (Skeletal Muscle, 2021).

What all share (type): in vivo, mouse (D2.B10-Dmd^mdx/J)
Test [1] has as its system D2.B10 mice. Briefly: Grip strength test (FNmax) in D2.B10 mice. The conditions noted are these: for FNmax from day 62 onwards: Givinostat 5, 10 and 37.5 mg/kg, vs vehicle; for FNmax from day 62 onwards / FNmax from day 21 until days 49-62: prednisone 1 mg/kg i.p. weekly; for FNmax from day 21 until days 49-62: Givinostat 10 and 37.5 mg/kg. The source says:
(§1) For the efficacy studies, C57BL/10 J (Stock No: 000665) wild type (wt) and C57BL/10ScSn-Dmd^mdx/J (Stock No: 001801) 7–8-week-old male mice, DBA/2J wt (Stock No: 000671), and D2.B10-Dmd^mdx/J (Stock No: 013141) 6–7-week-old male mice were purchased from The Jackson Laboratories (Bar Harbor, Maine, USA). After 5 days of acclimatization in the animal facility, mice were randomized into different treatment groups based on their BW. C57BL/10J wt mice were assigned to the naive wt group (healthy mice that received no treatment, but were subjected to functional tests), whereas mdx mice were assigned to the following groups (9 mice/group; 4–5 mice/cage): naive mdx (mice that received no treatment, but were subjected to functional tests), vehicle (0.5% methylcellulose, p.o.), and Givinostat (0.1, 0.3, 1, 5, 10, 25, and 37.5 mg/kg, p.o.). DBA/2J mice were assigned to the naive wt group (healthy mice that received no treatment, but were subjected to functional tests), whereas D2.B10 mice were assigned to the following groups (12–13 mice/group; 4–5 mice/gage): vehicle (filtered tap water, p.o.), Givinostat (1, 5, 10, and 37.5 mg/kg, p.o.), prednisone 1 mg/kg, and Deflazacort 1 mg/kg (i.p.).
(§2) In the efficacy studies, Givinostat powder (ITF2357) was suspended in 0.5% methylcellulose (Sigma-Aldrich) and administered p.o. (by gavage) at the doses of 0.1, 0.3, 1, 5, 10, 25, and 37.5 mg/kg qdx5x15weeks (administration volume per mouse: 10 mL/kg) in mdx mice (see Additional Figure 1A). Vehicle-treated mdx mice received 0.5% methylcellulose suspension. Givinostat suspension was stored at + 4 °C, and it was freshly prepared every 7 days. Probably due to the impairment of their tongue and masticatory muscles, the oral gavage procedure turned out to be difficult to perform, and chronic treatment of D2.B10 mice by this route was considered to bear a high risk of damaging the esophagus. For this reason, Givinostat was administered in the drinking water. Givinostat was dissolved in filtered tap water and was administered in drinking water (throughout 24 h) for 105 days at the dose of 1, 5, 10, and 37.5 mg/kg/day, according to a daily estimate of water consumption of 4 ml/mouse/day. Water consumption was weekly monitored throughout the entire duration of the study weighing the bottle of each cage (maximum 4 mice per cage). Prednisone and Deflazacort powder (Sigma-Aldrich) was dissolved in 2% DMSO (Sigma-Aldrich) and diluted in sterile saline on injection days. Both drugs were administered weekly (for 15 weeks) by i.p. injection at the dose of 1 mg/kg in a volume of 10 mL/kg. Givinostat and steroid treatments started on days 7 and 9 of the experimental plan, respectively (see Additional Figure 1B). All mice were monitored daily and tolerability was evaluated on the basis of BW and clinical signs.
In both efficacy studies, the effectiveness of treatments was evaluated every week by measuring the forelimb strength by a grip strength meter (Ugo Basile SRL, Italy). BW of mdx (see Additional Figure 2) and D2.B10 mice (see Additional Figure 3) was also measured in order to normalize the absolute grip strength of each mouse with respect to its BW. The protocol provides 5 measurements for each mouse (the procedure was compliant with the standard operating procedures of TREAT–NMD Neuromuscular Network). The highest recorded value of maximal normalized strength (FNmax) obtained for each mouse at all the time points (from T0 to T15) was used for further analysis.
After taking baseline readings for behavioral assays (FNmax and distance run by the animals), mice were re-randomized based on these two parameters, also considering the previous randomization performed on their BW.
The grip strength and run to exhaustion tests were performed during the light-cycle phase, in the early hours of the morning (8:00–11:30 am). […]

Test [2] relates to D2.B10 mice. The test is described as follows: Treadmill run to exhaustion test in D2.B10 mice. The settings on record: for Effect on distance run, significance: Deflazacort, prednisone 1 mg/kg, lower doses of Givinostat.
Source text: as §1, §2
Run to exhaustion performance of mdx and D2.B10 mice was evaluated every 14 or 21 days, respectively, using a treadmill apparatus (Ugo Basile SRL, Italy). The exhaustion protocol consisted in an initially horizontal running at 5 m/min for 5 min after which the speed was increased 1 m/min every minute until exhaustion (the procedure was compliant with the standard operating procedures of TREAT–NMD Neuromuscular Network). […]
After taking baseline readings for behavioral assays (FNmax and distance run by the animals), mice were re-randomized based on these two parameters, also considering the previous randomization performed on their BW. […]

For test [3], the system named is D2.B10 mice. The test is described as follows: Centralized nuclei (%) in muscles of D2.B10 mice. The settings on record: Givinostat 37.5 mg/kg; for Nuclear centralization in TA: prednisone (vehicle 21.2 ± 1.0); for Nuclear centralization in GAS: prednisone (vehicle 25.1 ± 1.5). The source says:
Tibialis anterior (TA), gastrocnemius (GAS), DIA, and heart were collected from mice maintained under isoflurane anesthesia and sacrificed by cervical dislocation. These muscles were collected from C57BL/10J wt and mdx (5 mice/group) at the end of treatments and from DBA/2J wt and D2.B10 mice (5 mice/group) at two different time points to be examined by a pathologist (for more details see Additional Table 1). Due to the results obtained by the functional tests, muscles from only some treatment groups were analyzed in both DMD models (see Additional Table 1). All the collected muscles were fixed in 10% buffered formalin solution (Bio-optica, Milan, Italy) at + 4 °C for at least 48 h. After fixation, muscular samples were transversely trimmed, caged, and paraffin embedded overnight with an Automated Vacuum Tissue Processor Floor (ETP, Histo-Line Laboratories) and included in paraffin blocks. Serial transverse cross-sections (4 μm thick) were cut with a microtome (Leica RM 2255), collected onto uncoated glass slides, and stained using a standard protocol for hematoxylin and eosin (Mayer hematoxylin & Aqueous G Eosin 1%, Bio-Optica) and Sirius Red staining (Direct Red 80, Sigma-Aldrich). For the image analysis and quantitation, hematoxylin and eosin- and Sirius Red-stained slides were examined with an Olympus BX51 light microscope. From each sample, 1 to 3 random microphotographs at the magnification of × 4 and × 10 (TA, GAS and heart) or × 20 (DIA) were collected using Image-Pro Plus system. The digital images were processed by a pathologist using ImageJ software (U.S. National Institutes of Health, Bethesda, MD, USA). To quantify CSA and centralized nuclei (%) on hematoxylin and eosin-stained sections, one hundred myofibers were manually measured for each muscle/mouse using a tablet pen (Wacom Intruos) and analyzed by the ImageJ software after a linear calibration of 150 μm. The fibrotic area, corresponding to the area stained in red, was compared to the total area of the tissue section, and the results were expressed as percentage fibrosis. The % of fibrosis of muscles in the different treatment groups was expressed by averaging the three values obtained from each muscle.

On to `C[C@]12C=CC(=O)C=C1CC[C@@H]1[C@@H]2C(=O)C[C@@]2(C)[C@H]1CC[C@]2(O)C(=O)CO` [prednisone], for which the “Effect of steroid on FNmax in comparison” value in test [1] (1 mg/kg i.p. weekly, all the treatment period) is listed as “comparable to that of Givinostat 5 e 10 mg/kg”. In test [1], the “FNmax from day 62 onwards” value was “remained significantly elevated until day 104” and the “FNmax from day 21 until days 49-62” value is recorded as “increased the FNmax of D2.B10-treated mice to that of wt healthy mice”. The “Effect on distance run, significance” value in test [2] is on record as “not statistically significant”. In test [3], the “Nuclear centralization in TA” value is given as 22.0 ± 2.4% and the “Nuclear centralization in GAS” value was determined as 21.6 ± 1.7%.
For `CCN(CC)Cc1ccc2cc(COC(=O)Nc3ccc(C(=O)NO)cc3)ccc2c1` [Givinostat], in test [1], the “Lowest dose with significant effect on FNmax from day 21 to day 104” value stood at 10 mg/kg, the “FNmax from day 62 onwards” value is “remained significantly elevated until day 104” and the “FNmax from day 21 until days 49-62” value is “increased the FNmax of D2.B10-treated mice to that of wt healthy mice”. Also, the “Effect on FNmax” value in test [1] (1-37.5 mg/kg/day in drinking water) is listed as “dose-dependent”. For the same compound, in test [1] (Deflazacort 1 mg/kg i.p. weekly, Givinostat 1 mg/kg), the “Time interval of significant FNmax improvement” value is recorded as “from day 42 to days 90/104”. Moreover, the “Difference in FNmax, Givinostat 37.5 mg/kg vs Deflazacort” value in test [1] (days 90 and 97, p < 0.05 and p < 0.01) is “a significant difference was also seen”. Moreover, in test [1] (drinking water), the “Dose of maximal efficacy on FNmax” value was 37.5 mg/kg. Moreover, the “Significant differences in FNmax, Givinostat 37.5 mg/kg versus prednisone” value in test [1] (p < 0.05) was “observed only at days 90 and 97”. For the same compound, the “Effect on distance run, significance” value in test [2] is “not statistically significant”. Moreover, in test [2] (Givinostat top dose (37.5 mg/kg), day 105 (vehicle 296 ± 17 m)), the Distance run is given as 473 ± 22 meters. For the same compound, the Time to exhaustion result in test [2] (highest dose, day 105) was “significantly prolonged the time to exhaustion”. Besides, in test [3], the “Nuclear centralization in TA” value amounted to 19.8 ± 2.4% and the “Nuclear centralization in GAS” value is 22.4 ± 2.1%.
